Results taken from patent US6537986B2, “Oxazolidinone antibacterial agents having a thiocarbonyl funtionality” (Pharmacia & Upjohn Company, priority 1997, dated 2003).
In brackets after ≈: the same amount, converted by molar mass. Like-named read-outs stand apart in the source and are kept apart here.

What was measured:
[1] = system: S. epidermidis (SEPI 12084); assay: MIC, standard agar dilution method; assay type: cell-based; details: Staphylococcus epidermidis, Table 1, Mueller Hinton agar, incubated overnight at 35° C., read-out: Oxazolidinone MIC Values (Gram+) SEPI 12084
Method: (§1) MIC Test Method The in vitro MICs of test compounds were determined by a standard agar dilution method. A stock drug solution of each analog is prepared in the preferred solvent, usually DMSO:H2O (1:3). Serial 2-fold dilutions of each sample are made using 1.0 ml aliquots of sterile distilled water. To each 1.0 ml aliquot of drug is added 9 ml of molten Mueller Hinton agar medium. The drug-supplemented agar is mixed, poured into 15×100 mm petri dishes, and allowed to solidify and dry prior to inoculation. Vials of each of the test organisms are maintained frozen in the vapor phase of a liquid nitrogen freezer. Test cultures are grown overnight at 35° C. on the medium appropriate for the organism. Colonies are harvested with a sterile swab, and cell suspensions are prepared in Trypticase Soy broth (TSB) to equal the turbidity of a 0.5 McFarland standard. A 1:20 dilution of each suspension is made in TSB. […] The plates are incubated overnight at 35° C. Following incubation the Minimum Inhibitory Concentration (MIC μg/ml), the lowest concentration of drug that inhibits visible growth of the organism, is read and recorded.

[2] = system: S. pneumoniae (SPNE 9912); assay: MIC, standard agar dilution method; assay type: cell-based; details: Streptococcus pneumoniae, incubated overnight at 35° C.
Method: as §1, with “A stock drug solution of each analog is prepared in the preferred solvent, usually DMSO:H2O (1:3).” left out

[3] = system: S. epidermidis (SEPI 30593); assay: MIC, standard agar dilution method; assay type: cell-based; details: Staphylococcus epidermidis, Table II, Mueller Hinton agar, incubated overnight at 35° C.
Method: as §1, with “A stock drug solution of each analog is prepared in the preferred solvent, usually DMSO:H2O (1:3).” left out

[4] = system: Moraxella catarrhalis (MCAT 30610); assay: MIC, standard agar dilution method; assay type: cell-based; details: Moraxella catarrhalis, Table II, Mueller Hinton agar, incubated overnight at 35° C.
Method: as §1, with “A stock drug solution of each analog is prepared in the preferred solvent, usually DMSO:H2O (1:3).” left out

E. Faecium (EFAE 12712) = assay: MIC, standard agar dilution method; assay type: cell-based; details: Enterococcus faecium; Table II; key: E. Faecium; agar dilution, Mueller Hinton agar, incubated overnight at 35° C.; read-out: EFAE 12712 MIC
Method: as §1, with “A stock drug solution of each analog is prepared in the preferred solvent, usually DMSO:H2O (1:3).” left out

S. aureus (SAUR 9213) = assay: MIC, standard agar dilution method; assay type: cell-based; details: Staphylococcus aureus, incubated overnight at 35° C.
Method: as §1, with “A stock drug solution of each analog is prepared in the preferred solvent, usually DMSO:H2O (1:3).” left out

[5] = system: Haemophilus influenzae (HINF 30063); assay: MIC, standard agar dilution method; assay type: cell-based; details: Haemophilus influenzae, Table II, Mueller Hinton agar, incubated overnight at 35° C.
Method: as §1, with “A stock drug solution of each analog is prepared in the preferred solvent, usually DMSO:H2O (1:3).” left out

[6] = system: Enterococcus faecalis (EFAE 9217); assay: MIC, standard agar dilution method; assay type: cell-based; details: incubated overnight at 35° C.
Method: as §1, with “A stock drug solution of each analog is prepared in the preferred solvent, usually DMSO:H2O (1:3).” left out

S. pyogenes (SPYO 152) = assay: MIC, standard agar dilution method; assay type: cell-based; details: Streptococcus pyogenes, incubated overnight at 35° C.
Method: as §1, with “A stock drug solution of each analog is prepared in the preferred solvent, usually DMSO:H2O (1:3).” left out

[7] = Table 1, Mueller Hinton agar, read-out: Oxazolidinone MIC Values (Gram+) SPNE 9912
[8] = Table II, Mueller Hinton agar, read-out: SPNE 9912 MIC
[9] = Table 1, Mueller Hinton agar, read-out: Oxazolidinone MIC Values (Gram+) SAUR 9213
[10] = Table II, Mueller Hinton agar, read-out: SAUR 9213 MIC
[11] = Enterococcus faecalis, Table 1, Mueller Hinton agar, read-out: Oxazolidinone MIC Values (Gram+) EFAE 9217
[12] = Table II, key: Enterococcus faecalis, Mueller Hinton agar, read-out: EFAE 9217 MIC
[13] = Table 1, Mueller Hinton agar, read-out: Oxazolidinone MIC Values (Gram+) SPYO 152
[14] = Table II, Mueller Hinton agar, read-out: SPYO 152 MIC

Row | Structure (SMILES) | MIC [1] [µg/mL] | MIC [2, 7] [µg/mL] | MIC [2, 8] [µg/mL] | MIC [3] [µg/mL] | MIC [4] [µg/mL] | MIC (E. Faecium (EFAE 12712)) [µg/mL] | MIC (S. aureus (SAUR 9213); [9]) [µg/mL] | MIC (S. aureus (SAUR 9213); [10]) [µg/mL] | MIC [5] [µg/mL] | MIC [6, 11] [µg/mL] | MIC [6, 12] [µg/mL] | MIC (S. pyogenes (SPYO 152); [13]) [µg/mL] | MIC (S. pyogenes (SPYO 152); [14]) [µg/mL] | melting point
1 | CC(=S)NC[C@H]1CN(c2ccc(N3CCOCC3)c(F)c2)C(=O)O1 [Example 1, (S)-N-[[3-[3-Fluoro-4-(4-morpholinyl)phenyl]-2-oxo-5-oxazolidinyl]methyl]thioacetamide] | 0.25 (≈ 0.707 µM) | 0.13 (≈ 0.368 µM) | < 0.125 | 0.25 (≈ 0.707 µM) | 1 (≈ 2.83 µM) | 0.5 (≈ 1.41 µM) | 1 (≈ 2.83 µM) | 1 (≈ 2.83 µM) | 8 (≈ 22.6 µM) | 0.5 (≈ 1.41 µM) | 0.5 (≈ 1.41 µM) | 0.13 (≈ 0.368 µM) | < 0.125 | 157.5 to 158.5 °C
2 | CC(=S)NC[C@H]1CN(c2ccc(N3CCN(c4nnc(C)s4)CC3)c(F)c2)C(=O)O1 [Example 2, (S)-N-[[3-[3-Fluoro-4-[4-(5-methyl-1,3,4-thiadiazol-2-yl)-1-piperazinyl]phenyl]-2-oxo-5-oxazolidinyl]methyl]thioacetamide] | 2 (≈ 4.44 µM) | 2 (≈ 4.44 µM) | 2 (≈ 4.44 µM) | 4 (≈ 8.88 µM) | > 16 | 8 (≈ 17.8 µM) | 8 (≈ 17.8 µM) | 8 (≈ 17.8 µM) | > 16 | 4 (≈ 8.88 µM) | 4 (≈ 8.88 µM) | 4 (≈ 8.88 µM) | 4 (≈ 8.88 µM) | 222 to 223 °C
3 | CC(=S)NC[C@H]1CN(c2ccc(N3CCC4(CC3)NC(=O)NC4=O)c(F)c2)C(=O)O1 [Example 3, (S)-N-[[3-[3-Fluoro-4-[2′,5′-dioxospiro[piperidine-4,4′-imidazolidine]-1-yl]phenyl]-2-oxo-5-oxazolidinyl]methyl]thioacetamide] | 1 (≈ 2.3 µM) | 0.25 (≈ 0.574 µM) | 0.25 (≈ 0.574 µM) | 1 (≈ 2.3 µM) | 4 (≈ 9.19 µM) | 1 (≈ 2.3 µM) | 4 (≈ 9.19 µM) | 4 (≈ 9.19 µM) | 16 (≈ 36.7 µM) | 2 (≈ 4.59 µM) | 2 (≈ 4.59 µM) | 0.5 (≈ 1.15 µM) | 0.5 (≈ 1.15 µM) | 
4 | CC(=S)NC[C@H]1CN(c2ccc3c(c2)CCN3C(=O)CO)C(=O)O1 [Example 24, (S)-N-[[3-[1-(Hydroxyacetyl)-5-indolinyl]-2-oxo-5-oxazolidinyl]methyl]thioacetamide] |  |  | < 0.125 | 0.25 (≈ 0.715 µM) | 2 (≈ 5.72 µM) | 0.5 (≈ 1.43 µM) |  | 1 (≈ 2.86 µM) | 4 (≈ 11.4 µM) |  | 0.5 (≈ 1.43 µM) |  | 0.25 (≈ 0.715 µM) | 175 to 176 °C (dec.)
5 | CC(=S)NC[C@H]1CN(c2ccc(N3CCN(C(=O)CO)CC3)c(F)c2)C(=O)O1 [Example 25, (S)-N-[[3-[3-Fluoro-4-[4-(hydroxyacetyl)-1-piperazinyl]phenyl]-2-oxo-5-oxazolidinyl]methyl]thioacetamide] |  |  | < 0.125 | 0.25 (≈ 0.609 µM) | 2 (≈ 4.87 µM) | 0.5 (≈ 1.22 µM) |  | 0.5 (≈ 1.22 µM) | 2 (≈ 4.87 µM) |  | 0.5 (≈ 1.22 µM) |  | < 0.125 | 163 to 165 °C
6 | CC(=S)NC[C@H]1CN(c2ccc(N3CCSCC3)c(F)c2)C(=O)O1 [Example 26, (S)-N-[[3-[3-Fluoro-4-(4-thiomorpholinyl)phenyl]-2-oxo-5-oxazolidinyl]methyl]thio-acetamide] |  |  | 0.25 (≈ 0.677 µM) | 0.5 (≈ 1.35 µM) | 2 (≈ 5.41 µM) | 1 (≈ 2.71 µM) |  | 1 (≈ 2.71 µM) | 16 (≈ 43.3 µM) |  | 1 (≈ 2.71 µM) |  | 0.5 (≈ 1.35 µM) | 155 to 156 °C
7 | CC(=S)NC[C@H]1CN(c2ccc(N3CC[S+]([O-])CC3)c(F)c2)C(=O)O1 [Example 27, (S)-N-[[3-[3-Fluoro-4-(4-thiomorpholinyl)phenyl]-2-oxo-5-oxazolidinyl]methyl]thio-acetamide, thiomorpholine S-oxide] |  |  | < 0.125 | 0.5 (≈ 1.3 µM) | 2 (≈ 5.19 µM) | 0.5 (≈ 1.3 µM) |  | 0.5 (≈ 1.3 µM) | 4 (≈ 10.4 µM) |  | 1 (≈ 2.59 µM) |  | 0.25 (≈ 0.649 µM) | 176 to 177 °C
8 | CC(=S)NC[C@H]1CN(c2cc(F)c(N3CCN(C(=O)CO)CC3)c(F)c2)C(=O)O1 [Example 29, (S)-N-[[3-[3,5-Difluoro-4-[4-(hydroxyacetyl)-1-piperazinyl]phenyl]-2-oxo-5-oxazolidinyl]methyl]thioacetamide] |  |  | < 0.125 | 0.25 (≈ 0.583 µM) | 0.5 (≈ 1.17 µM) | 0.25 (≈ 0.583 µM) |  | 0.25 (≈ 0.583 µM) | 2 (≈ 4.67 µM) |  | 0.25 (≈ 0.583 µM) |  | < 0.125 | 110 to 111 °C (dec.)
9 | NC(=S)NC[C@H]1CN(c2ccc(-n3cncn3)c(F)c2)C(=O)O1 [Example 30] |  |  | < 0.125 | 1 (≈ 2.97 µM) | 2 (≈ 5.95 µM) | 0.5 (≈ 1.49 µM) |  | 4 (≈ 11.9 µM) | 8 (≈ 23.8 µM) |  | 1 (≈ 2.97 µM) |  | 0.25 (≈ 0.743 µM) | 214 to 215 °C
10 | NC(=S)NC[C@H]1CN(c2ccc(N3CCN(C(=O)CO)CC3)c(F)c2)C(=O)O1 [Example 31, (S)-N-[[3-[3-Fluoro-4-[4-(hydroxyacetyl)-1-piperazinyl]phenyl]-2oxo-5-oxazolidinyl]-methyl]thiourea] |  |  | < 0.125 | 1 (≈ 2.43 µM) | 1 (≈ 2.43 µM) | 1 (≈ 2.43 µM) |  | 2 (≈ 4.86 µM) | 4 (≈ 9.72 µM) |  | 1 (≈ 2.43 µM) |  | 0.25 (≈ 0.608 µM) | 209 to 210 °C
11 | NC(=S)NC[C@H]1CN(c2ccc3c(c2)CCN3C(=O)CO)C(=O)O1 [Example 32, (S)-N-[[3-[1-(Hydroxyacetyl)-5-indolinyl]-2-oxo-5-5 oxazolidinyl]methyl]thiourea] |  |  | 0.25 (≈ 0.713 µM) | 2 (≈ 5.71 µM) | 2 (≈ 5.71 µM) | 2 (≈ 5.71 µM) |  | 16 (≈ 45.7 µM) | 8 (≈ 22.8 µM) |  | 4 (≈ 11.4 µM) |  | 0.25 (≈ 0.713 µM) | 214 to 215 °C (dec.)
12 | NC(=S)NC[C@H]1CN(c2ccc(N3CC[S+]([O-])CC3)c(F)c2)C(=O)O1 [Example 33, (S)-N-[[3-[3-Fluoro-4-(4-thiomorpholinyl)phenyl]-2-oxo-5-oxazolidinyl]methyl]thiourea, thiomorpholine S-oxide] |  |  | 0.25 (≈ 0.647 µM) | 2 (≈ 5.17 µM) | 2 (≈ 5.17 µM) | 1 (≈ 2.59 µM) |  | 4 (≈ 10.3 µM) | 4 (≈ 10.3 µM) |  | 4 (≈ 10.3 µM) |  | 0.25 (≈ 0.647 µM) | 212 to 213 °C
13 | CC(=O)NC[C@H]1CN(c2ccc(N3CCC4(CC3)NC(=O)NC4=O)c(F)c2)C(=O)O1 [reference compound] | 4 (≈ 9.54 µM) | 0.5 (≈ 1.19 µM) |  |  |  |  | 16 (≈ 38.1 µM) |  |  | 8 (≈ 19.1 µM) |  | 1 (≈ 2.38 µM) |  | 
14 | CC(=O)NC[C@H]1CN(c2ccc(N3CCOCC3)c(F)c2)C(=O)O1 [reference compound] | 1 (≈ 2.96 µM) | 0.5 (≈ 1.48 µM) |  |  |  |  | 2 (≈ 5.93 µM) |  |  | 2 (≈ 5.93 µM) |  | 1 (≈ 2.96 µM) |  | 
15 | CC(=O)NC[C@H]1CN(c2ccc(N3CCN(c4nnc(C)s4)CC3)c(F)c2)C(=O)O1 [reference compound] | 0.25 (≈ 0.575 µM) | 0.13 (≈ 0.299 µM) |  |  |  |  | 0.5 (≈ 1.15 µM) |  |  | 1 (≈ 2.3 µM) |  | 0.25 (≈ 0.575 µM) |  | 
